The source of these data is ChEMBL document CHEMBL5131473, “One-pot synthesis of oxoaporphines as potent antitumor agents and investigation of their mechanisms of actions” (Eur J Med Chem, 2022).

Calls of active or inactive are those of the source. The calls are words filed in the database; no cut-off is given here.

Data set [1] relates to T-24. Kind of data set: Induction of DNA damage in human T24 cells assessed as DNA strand breakage by measuring comet formation at 10 uM incubated for 24 hrs by comet assay. It is filed as functional, cell-based.
The test system of data set [2] is T-24. Kind of data set: Induction of apoptosis in human T24 cells assessed as increase in caspase 3 activity at 10 uM (Rvb= 3.1%). It is filed as functional.
In data set [3] the test system is T-24. Kind of data set: Induction of apoptosis in human T24 cells assessed as condensation of nuclei at 10 uM by Hoechst33258 staining based fluorescence microscopy. It is filed as functional, cell-based.
Data set [4] has as its system T-24. The data set is described as follows: Induction of mitochondrial membrane potential dysfunction in human T24 cells assessed as depolarised cells at 10 uM incubated for 24 hrs by JC-1 staining based flow cytometry (reference value: 6.20%). It is filed as functional. In general terms: Flow cytometry measures light scatter and fluorescence of single cells or particles in a stream.

Data set [5] deals with T-24. The data set is described as follows: Induction of ROS generation in human T24 cells at 10 uM by fluorescence microscopy. It is filed as functional, cell-based.
Data set [6] has as its system T-24. The data set is described as follows: Induction of cell cycle arrest in human T24 cells assessed as accumulation of cells at S phase at 10 uM incubated for 24 hrs by propidium iodide/RNase A staining based flow cytometry analysis (reference value: 42.47 %). It is filed as functional.
Data set [7] deals with T-24. The data set is described as follows: Induction of apoptosis in human T24 cells assessed as viable cells at 10 uM incubated for 24 hrs by Annexin-V/PI staining based flow cytometry analysis (reference value: 94.3 %). The conditions noted are these: read-out: Activity. It is filed as functional.
The test system of data set [8] is T-24. Kind of data set: Induction of apoptosis in human T24 cells assessed as viable cells at 15 uM incubated for 24 hrs by Annexin-V/PI staining based flow cytometry analysis (reference value: 94.3 %). Particulars: read-out: Activity. The class given is functional.
Data set [9] has as its system T-24. The data set is described as follows: Induction of apoptosis in human T24 cells assessed as late apoptotic cells at 20 uM incubated for 24 hrs by Annexin-V/PI staining based flow cytometry analysis (reference value: 0.543 %). The class given is functional.
Data set [10] relates to T-24. The data set is described as follows: Cytotoxicity against human T24 cells assessed as decrease in cell viability at 10 uM by MTT assay. Particulars: TDE = time-dependent effect. It is filed as functional, cell-based. For orientation: Formazan colour is commonly taken as a measure of viable cells.
The subject of data set [11] is T-24. The data set is described as follows: Induction of mitochondrial membrane potential dysfunction in human T24 cells assessed as decrease in ATP production at 1 uM. Details: scale not given: the % may be the effect or the level left. The class given is functional.
Data set [12] deals with T-24. The data set is described as follows: Induction of mitochondrial ROS generation in human T24 cells at 0.5 uM measured after 24 hrs by Mitotracker Red dye based confocal microscopy method. It is filed as functional, cell-based.
Data set [13] has as its system T-24. Kind of data set: Induction of mitochondrial Ca2+ production in human T24 cells assessed as increase in intracellular Ca2+ concentration at 0.5 uM by Rhod2-AM staining based fluorescence microscopic method. It is filed as functional, cell-based.
Data set [14] concerns T-24. The data set is described as follows: Induction of apoptosis in human T24 cells assessed as early apoptotic cells at 0.5 uM incubated for 24 hrs by Annexin-V/PI staining based flow cytometry analysis (reference value: 3.27 %). It is filed as functional.
For data set [15], the system named is T-24. The data set is described as follows: Induction of mitochondrial membrane potential dysfunction in human T24 cells assessed as nuclear condensation at 0.5 to 1 uM by mito-tracker green dye based fluorescence microscopy. The class given is functional, cell-based. The conditions noted are these: dose 0.5-1 µM.
A short description of data set [16]: Toxicity in human WI-38 cells assessed as wound closure at 1 uM measured after 24 hrs by fluorescence microscopy based wound healing assay. The class given is cell-based. The conditions noted are these: wi-38, 24 h.
Data set [17] deals with T-24. Kind of data set: Induction of mitochondrial membrane potential dysfunction in human T24 cells assessed as depolarised cells at 2 uM incubated for 24 hrs by JC-1 staining based flow cytometry (reference value: 6.20%). It is filed as functional.
Data set [18] relates to T-24. The data set is described as follows: Induction of mitochondrial membrane potential dysfunction in human T24 cells assessed as shrinking mitochondria at 2 uM incubated for 24 hrs by TEM analysis. It is filed as functional, cell-based.
Data set [19] relates to T-24. Kind of data set: Induction of mitochondrial mediated apoptosis in human T24 cells assessed as decrease in Bcl-2 protein expression at 2 to 4 uM incubated for 24 hrs by Western blotting analysis. The conditions noted are these: dose 2-4 µM. It is filed as functional, cell-based. On the technique in general: In western blotting, separated proteins are transferred to a membrane and probed.

Data set [20] concerns T-24. The data set is described as follows: Induction of mitochondrial mediated apoptosis in human T24 cells assessed as increase in Bak protein expression at 2 to 4 uM incubated for 24 hrs by Western blotting analysis. It is filed as functional, cell-based. Particulars: dose 2-4 µM.
Data set [21] has as its system T-24. The data set is described as follows: Induction of mitochondrial mediated apoptosis in human T24 cells assessed as upregulation of cytochrome c expression at 2 to 4 uM incubated for 24 hrs by Western blotting analysis. The class given is functional, cell-based. The conditions noted are these: dose 2-4 µM.
For data set [22], the system named is T-24. The data set is described as follows: Induction of ROS accumulation in human T24 cells assessed as increase in intracellular ROS level at 2 uM by […] based flow cytometry. It is filed as functional, cell-based.
The test system of data set [23] is T-24. Kind of data set: Induction of apoptosis in human T24 cells assessed as increase in caspase 9 activity at 4 uM (Rvb= 7.2%). It is filed as functional.
Data set [24] concerns T-24. Kind of data set: Induction of cell cycle arrest in human T24 cells assessed as accumulation of cells at S phase at 2 uM incubated for 24 hrs by propidium iodide/RNase A staining based flow cytometry analysis (reference value: 42.47 %). It is filed as functional.
In data set [25] the test system is T-24. The data set is described as follows: Induction of apoptosis in human T24 cells assessed as necrotic cells at 4 uM incubated for 24 hrs by Annexin-V/PI staining based flow cytometry analysis (reference value: 1.92 %). The class given is functional.
Data set [26] has as its system T-24. The data set is described as follows: Inhibition of colony formation in human T24 cells at 0.16 uM incubated for 24 hrs and measured for 10 days. The class given is functional, cell-based.
In data set [27] the test system is T-24. The data set is described as follows: Induction of apoptosis in human T24 cells assessed as condensed chromatin at 2 uM by Hoechst33258 staining based fluorescence microscopy. The class given is functional, cell-based.
The subject of data set [28] is T-24. Kind of data set: Induction of mitochondrial membrane potential dysfunction in human T24 cells assessed as nuclear condensation at 2 to 4 uM by mito-tracker green dye based fluorescence microscopy. The class given is functional, cell-based. Particulars: dose 2-4 µM.
The test system of data set [29] is T-24. The data set is described as follows: Induction of mitochondrial membrane potential dysfunction in human T24 cells assessed as increase in fragmentation at 2 uM incubated for 24 hrs by TEM analysis. It is filed as functional, cell-based.

In the case of `O=C1c2ccccc2-c2cccc3ccnc1c23`, the outcome in data set [1], in data set [3] and in data set [5] was Active. The Activity in data set [2] was 19.9%; in [4] it was 11.7%; in data set [6], 54.86%; in data set [9] it was 4.89%; in data set [10] it was “Tde”. Besides, the viability at 10 µM in data set [7] amounted to 79.1%. For the same compound, the viability at 15 µM in [8] stood at 58%.
In the case of `O=C1c2ccccc2-c2ccc([N+](=O)[O-])c3ccnc1c23`, the Activity in data set [11] came to 47.3%; in [14], 35.3%. In addition, the outcome in [12], in data set [13] and in data set [15] was Active.
Consider `O=C1c2cc([N+](=O)[O-])ccc2-c2ccc([N+](=O)[O-])c3ccnc1c23`, for which the Activity result is reported as “Non-Toxic” in data set [16]; 15.9% in data set [17]; 28.9% in data set [23]; 66.71% in data set [24]; 2.8% in data set [25]. The result in data set [18], in data set [19], in data set [20], in [21], in data set [22] and in data set [27] was Active. The result in data set [28] and in data set [29] was Active. For the same compound, in [26], the inhibition result was “Active”.
